Source: patent US20220287949A1, “SAFE PARTICLES FOR THE INTRODUCTION OF USEFUL CHEMICAL AGENTS IN THE BODY WITH CONTROLLED ACTIVATION” (priority 2019, published 2022)
In brackets after ≈: the same amount, converted by molar mass. Read-outs that look alike come from different tables or passages of the source.

Key:
[1] = test system: NIH 3T3 murine fibroblasts; assay: Cytotoxicity of particle components (MTS assay); type: cell-based; settings: dye solution in ethanol, NIH 3T3, 24 hours, 37° C.
Procedure: Dye components were each dissolved in ethanol (molecular grade ethanol from Fisher Scientific) to produce a stock solution at 1 mM (B141, M071, and Epolight™ 1117) or 100 μM (C161). For each stock solution, additional dilutions were made at 2×, 4×, 8×, 16×, 32×, 64×, and 128×, and each concentration was tested for cytotoxicity against NIH 3T3 murine fibroblasts in a cytotoxicity test. NIH-3T3 cells were plated in a 96-well culture plate at a density of 10,000 cells per well and allowed to adhere to the surface overnight. Different concentrations of the dye solution were added to the NIH 3T3 cells and incubated for 24 hours at 37° C., in a 5% CO2 incubator. Controls for the cytotoxicity experiment included “live” and “dead” (cells were killed due to osmotic pressure by adding D.I. water). “Live” cells had nothing except cell culture media containing 10% FBS added to them and were used to obtain the 100% viability data. The “dead” control was used to obtain the 0% viability data point. After 24 hours, cells were washed twice with 1× PBS containing calcium and magnesium and 100 μL of media was added at the end. To a final volume of 100 μL of media in the wells, 20 μL of PMS activated MTS reagent was added and incubated for 90 minutes. At the end of the 90 minutes, absorbance was measured at 490 nm using a plate reader (Spectramax M2e, Molecular Devices). Viability of cells was calculated using the absorbance measured for the “live” (100%) and “dead” (0%) controls and the results of % viability estimated from the absorbance for the different concentrations of the dyes were plotted in MS Excel using linear regression curve fitting algorithm to obtain the IC30. All the samples were tested in triplicate and results were averaged over the three repeats.

[2] = Laser triggered changing of color of tattoo particles in gelatin; settings: for Abs: M071 at 458 nm, IR at 1064 nm
Procedure: Procedure: A solution of gelatin was prepared by adding Knox gelatin (1.0 g) to cold water (12.5 g) in a 100 mL glass jar equipped with a magnetic stir bar. The gelatin was stirred 15-30 minutes and then hot water was added (70° C.) until the total weight was 50.0 g. This gelatin was then used in 2.0 gm aliquots. Colorant loaded PMMA-BMA B-805 copolymer particles with 25% VTMS shells as prepared in Example lb above (20-30 mg) were then added to the gelatin solution (2.0 g) and vortexed in a 4 dram vial. The suspension of the tattoo particles in gelatin was then sonicated for 15-30 minutes before transferring to a 5 cm plastic culture dish. The gelatin suspension was spread evenly and allowed to set. It was then covered and stored at 6° C. until used.
Laser exposure was accomplished as follows: The cover for the culture dish was removed and a 5 cm clear plastic cover was cut and fit over the gelatin to prevent splatter. The top surface was then completely irradiated at 1064 nm with a 5 mm spot using fluences ranging from 2.46 J/cm^2 to 5.09 J/cm^2 using a Nd-YAG Q-switched Lutronic laser (Lutronic Spectra™ VRM II Laser with four distinct Q-switched mode wavelengths: 1064 nm, 532 nm, 585 nm, 650 nm, nano second pulse width, and spectra peak energy: 60 MW, 120 MW and 240 MW).
After irradiating the top surface, the culture dish was covered with its lid, turned over and irradiated from the opposite side to reach any unexposed particles visible only from the bottom side.
Following the complete irradiation, the plastic cover was removed and any adhered gelatin was transferred to a 10 ml centrifuge tube. The gelatin from the culture dish was also removed and transferred to the centrifuge tube with the aid of about 5 ml of water. The culture tube was rinsed with water and any suspended gelatin transferred by pipette to the centrifuge tube. The material in the tube was sonicated until the gelatin was redissolved (20-30 minutes, about 40° C.).
The sample was centrifuged for 20 minutes and the supernatant was removed. The recovered particles were slurried again with water, centrifuged, and the wash water removed. The resultant particles were dried in vacuum at room temperature and analyzed spectroscopically for the presence of dyes as in 2b above.
The standard fluence for removal of tattoo color in designs using these particles is 3.51 J/cm^2. 5.09 J/cm^2 is the maximum fluence on the Lutronic laser using a 5 mm spot. The laser triggered color changing tests were performed on 2 μm 5:1 Y197 (12.5% Y197:6.25% IR 1117), 2 μm 7:1 M071 (6.25% M071, 8.0 wt. % IR 1117), 2 μm 5:1 PBS (2.56 wt. % B141, 0.77 wt. % C161, 0.39 wt. % M071, 1.28 wt. % Y184, 8.0 wt. % IR1117), 2 μm 5:1 Y184 (12.5 wt. % Y184, 8.0 wt. % IR 1117) particles in the entries 21-24 of Table 3 above.(the numeric ratio is weight ratio of PMMA-BMA B-805 copolymer to colorant in the particle)

[3] = Surfactant-based extractable test (dye leaching into 1% SDS); type: physicochemical
Procedure: Dried particles (50 mg) were added to 3 mL of 1% sodium dodecyl sulfate to form a dispersion. The dispersion was sonicated for approximately 1 hour. The dispersion was centrifuged, and the supernatant component was withdrawn and filtered through a […] syringe filter. The absorbance spectrum of the filtrate was measured from 400-1300 nm using Shimadzu UV-3600 UV/VIS/NIR Spectrophotometer in a 1 cm cell.
The amount of the dye leached is calculated as in 2b above by applying Beer's law (Eq. 1) to give leachate concentrations. Leaching reduction is defined as the percentage of dye leached from coated particles when compared to uncoated particles of the same structure.
Portions of these particles were coated with several different shell thicknesses as described in Example lb above and tested for effectiveness in preventing dye leaching following the surfactant-based extractable test described in section Example 3b. […]

[4] = cited from earlier work
[5] = cited from earlier work; remark: listed apart in the source
[6] = 2 μm 5% PB5 particles, 25% VTMS shell, fluence 0 J/cm^2 (no laser)
[7] = 2 μm 5% PB5 particles, 1064 nm laser, fluence 3.51 J/cm^2
[8] = 2 μm 5% PB5 particles, 1064 nm laser, fluence 4.28 J/cm^2
[9] = 2 μm 5% PB5 particles, 1064 nm laser, fluence 5.09 J/cm^2
[10] = 2 μm 7:1 M071 particles, 25% VTMS shell, fluence 0 J/cm^2 (no laser)
[11] = 2 μm 7:1 M071 particles, 1064 nm laser, fluence 2.46 J/cm^2
[12] = 2 μm 7:1 M071 particles, 1064 nm laser, fluence 3.03 J/cm^2
[13] = 2 μm 7:1 M071 particles, 1064 nm laser, fluence 3.51 J/cm^2
[14] = 2 μm 7:1 M071 particles, 1064 nm laser, fluence 4.28 J/cm^2
[15] = 2 μm 7:1 M071 particles, 1064 nm laser, fluence 5.09 J/cm^2
[16] = Table 7B: 0.5 μm 2:1 PB4 particles with a 25% VTMS shell vs uncoated

What does the source list for “3,6-bis(2,3-dihydro-1H-indol-1-yl)-9-[2-[[[(1,1-dimethylethoxy)carbonyl]methylamino]sulfonyl]phenyl]-xanthylium [C161]”?
IC30 (70% viability) [1]: 14.65 μM^a; IC30 (70% viability) ([1]; listed as Cyan dye): about 14 μM

For “3,6-bis[(2-chlorophenyl)methylamino]-9-[2-[[[(1,1-dimethylethoxy)carbonyl]methylamino]sulfonyl]phenyl]-xanthylium [M071]”, which “IC30 (70% viability)” value [1] is on record?
The value was 63.23 μM^a.

What about the “IC30 (70% viability)” value ([1]; listed as Magenta) of the same compound?
The value was “about 61 μM”.

And the “% Reduction” value [2, 6]?
The value was 0%.

What about the Abs [2, 6] of the same compound?
The Abs was 0.023.

What about the “% Reduction” value [2, 7] of the same compound?
The value was 30%.

What about the Abs [2, 7] of the same compound?
The Abs was 0.016.

What about the “% Reduction” value [2, 8] of the same compound?
The value was 30%.

And the Abs [2, 8]?
Its Abs is 0.016.

And the “% Reduction” value [2, 9]?
The value was 30%.

What about the Abs [2, 9] of the same compound?
Its Abs is 0.016.

What about the “% Reduction” value [2, 10] of the same compound?
Its value is 0%.

And the Abs [2, 10]?
The Abs was 0.207.

And the “% Reduction” value [2, 11]?
Its value is 23%.

And the Abs [2, 11]?
Its Abs is 0.159.

And the “% Reduction” value [2, 12]?
The value was 30%.

And the Abs [2, 12]?
Its Abs is 0.146.

And the “% Reduction” value [2, 13]?
The value was 34%.

And the Abs [2, 13]?
The Abs was 0.137.

What about the “% Reduction” value [2, 14] of the same compound?
The value was 47%.

And the Abs [2, 14]?
The Abs was 0.109.

What about the “% Reduction” value [2, 15] of the same compound?
The value was 43%.

And the Abs [2, 15]?
The Abs was 0.119.

What about the “fluence at which the dye decay levels off” value ([2]; 1064 nm laser, particles in gelatin) of the same compound?
Its value is 4.28 J/cm^2.

And the “decay (reduction) after laser irradiation” value ([2]; M071 particles, 1064 nm laser, fluences 2.46 to 5.09 J/cm^2)?
The value was “about 50%”.

With “6-(dibutylamino)-9-[2-[[[(1,1-dimethylethoxy)carbonyl](methylsulfonyl)amino]methyl]phenyl]-3-methyl-2-(phenylamino)-xanthylium [B141]” as the compound, how does the “IC30 (70% viability)” value [1] read?
The value was 61.22 μM^a.

What about the “IC30 (70% viability)” value ([1]; listed as Black) of the same compound?
The value was “about 61 μM”.

Which results are given for “9-[2-[[[(1,1-dimethylethoxy)carbonyl]methylamino]sulfonyl]phenyl]-3,6-diphenoxy-xanthylium [Y161]”?
Leachate concentration ([3]; Table 7B: 0.5 μm 2:1 PB4 particles with a 25% VTMS shell): 1.2 µM; Leaching reduced to [3, 16]: 1.4%; Reduction Factor [3, 16]: 72.6; Leachate concentration ([3]; Table 7B: 0.5 μm 2:1 PB4 particles, uncoated particle): 87.1 µM

With NC(=O)CN(CC(=O)O)CC(=O)O [ADA, 2-[(2-amino-2-oxoethyl)-(carboxymethyl)amino]acetic acid] as the compound, how does the “pKa at 20° C.” value [4] read?
The value was 6.62.

For CC(C)(CO)NCCCCS(=O)(=O)O [AMPB], which “pKa at 20° C.” value [4] is on record?
The value was 8.8.

Which “pKa at 20° C.” value [4] does the source give for O=S(=O)(O)CCCNC1CCCCC1 [CAPS] here?
The value was 10.4.

Which results are given for C[N+](C)(C)CCN [Cholamine chloride]?
pKa at 20° C. [4]: 7.10; Solubility in water at 0° C. ([5]; (as HCl)): 4200 mM

With NCC(N)=O [Glycinamide] as the compound, how does the “pKa at 20° C.” value [4] read?
The value was 8.2.

And the “Solubility in water at 0° C.” value ([5]; (as HCl))?
Its value is 6400 mM (≈ 474 mg/mL).

With O=S(=O)(O)CCCN1CCN(CCO)CC1 [HEPPS, 3-[4-(2-Hydroxyethyl)piperazin-1-yl]propane-1-sulfonic acid] as the compound, how does the “pKa at 20° C.” value [4] read?
The value was 8.1.

What about the “Solubility in water at 0° C.” value [5] of the same compound?
Its value is “Large”.

With O=S(=O)(O)CC(O)CN1CCN(CCO)CC1 (stereo not shown) [HEPPSO] as the compound, how does the “Solubility in water at 0° C.” value [5] read?
The value was 2200 mM (≈ 590 mg/mL).

With O=S(=O)(O)CC(O)CN1CCOCC1 (stereo not shown) [MOPSO, 2-hydroxy-3-morpholin-4-ylpropane-1-sulfonic acid] as the compound, how does the “Solubility in water at 0° C.” value [5] read?
The value was 750 mM (≈ 169 mg/mL).

With O=S(=O)(O)CCN1CCN(CCS(=O)(=O)O)CC1 [PIPES, piperazine-N,N′-bis(2-ethanesulfonic acid)] as the compound, how does the “pKa at 20° C.” value [4] read?
The value was 6.82.

For O=S(=O)(O)CC(O)CNC(CO)(CO)CO (stereo not shown) [TAPSO, 3-[[1,3-dihydroxy-2-(hydroxymethyl)propan-2-yl]amino]-2-hydroxypropane-1-sulfonic acid], which “Solubility in water at 0° C.” value [5] is on record?
The value was 1000 mM (≈ 259 mg/mL).

For O=S(=O)(O)CCCNC(CO)(CO)CO [TAPS], which “Solubility in water at 0° C.” value [5] is on record?
Its value is “Large”.
